Where two headings read alike, the source gives them in different places.
How the values were obtained:
[1] = system: HLA-A*24:02-restricted CD8+ T cells; assay type: cell-based, human; conditions: for Freq of responder (%): of 17 vaccinated HLA-A*24:02+ individuals (Fig. 4b); for Resp: number of responders (individuals with epitope-specific CD8+ T cells): of 17 vaccinated HLA-A*24:02+ individuals, 1 μM peptide
HLA-A*24:02 = HLA-A*24:02 (Homo sapiens, UniProt P04439, D101N/D140Y/D185E/E176V/E190D/F33S/G103R/G107R/I119L/I121M/I306V/K335N/L105A/L180Q/L300P/N151K/N90K/Q86E/Q94H/R106L/R138H/R89G/T104I/T345S/V100E/W191G/Y123F); experiment: HLA stabilization assay using RMA-S-A2402 cells; assay type: binding; conditions: for MFI, HLA-A2402 (APC), representative staining: RMA-S-A2402 cells
[2] = convalescent donor C2, 45.290 weeks since PCR-confirmed diagnosis, peptide-pulsed C1R-A2402
[3] = convalescent donor C3, 2.430 weeks since PCR-confirmed diagnosis, peptide-pulsed C1R-A2402
[4] = convalescent donor C4, 35.000 weeks since PCR-confirmed diagnosis, peptide-pulsed C1R-A2402
[5] = convalescent donor C5, 41.430 weeks since PCR-confirmed diagnosis, peptide-pulsed C1R-A2402
[6] = convalescent donor C6, 20.000 weeks since PCR-confirmed diagnosis, peptide-pulsed C1R-A2402
[7] = convalescent donor C7, 21.710 weeks since PCR-confirmed diagnosis, peptide-pulsed C1R-A2402
[8] = convalescent donor C8, 47.860 weeks since PCR-confirmed diagnosis, peptide-pulsed C1R-A2402
[9] = convalescent donor C9, 21.860 weeks since PCR-confirmed diagnosis, peptide-pulsed C1R-A2402
[10] = convalescent donor C10, 24.570 weeks since PCR-confirmed diagnosis, peptide-pulsed C1R-A2402
[11] = convalescent donor C11, 24.290 weeks since PCR-confirmed diagnosis, peptide-pulsed C1R-A2402
[12] = vaccinated donor V1, 19.000 weeks since 2nd dose, C1R-A2402 pre-pulsed with 1 μM peptide
[13] = vaccinated donor V2, 9.570 weeks since 2nd dose, C1R-A2402 pre-pulsed with 1 μM peptide
[14] = vaccinated donor V3, 8.860 weeks since 2nd dose, C1R-A2402 pre-pulsed with 1 μM peptide
[15] = vaccinated donor V4, 10.430 weeks since 2nd dose, C1R-A2402 pre-pulsed with 1 μM peptide
[16] = vaccinated donor V5, 10.570 weeks since 2nd dose, C1R-A2402 pre-pulsed with 1 μM peptide
[17] = vaccinated donor V6, 9.570 weeks since 2nd dose, C1R-A2402 pre-pulsed with 1 μM peptide
[18] = vaccinated donor V7, 10.140 weeks since 2nd dose, C1R-A2402 pre-pulsed with 1 μM peptide
[19] = vaccinated donor V8, 9.860 weeks since 2nd dose, C1R-A2402 pre-pulsed with 1 μM peptide
[20] = vaccinated donor V9, 20.570 weeks since 2nd dose, C1R-A2402 pre-pulsed with 1 μM peptide
[21] = vaccinated donor V10, 2.000 weeks since 2nd dose, C1R-A2402 pre-pulsed with 1 μM peptide
[22] = vaccinated donor V11, 1.430 weeks since 2nd dose, C1R-A2402 pre-pulsed with 1 μM peptide
[23] = vaccinated donor V12, 1.000 weeks since 2nd dose, C1R-A2402 pre-pulsed with 1 μM peptide
[24] = vaccinated donor V13, 9.000 weeks since 2nd dose, C1R-A2402 pre-pulsed with 1 μM peptide
[25] = vaccinated donor V14, 2.000 weeks since 2nd dose, C1R-A2402 pre-pulsed with 1 μM peptide
[26] = vaccinated donor V15, 6.860 weeks since 2nd dose, C1R-A2402 pre-pulsed with 1 μM peptide
[27] = vaccinated donor V16, 8.860 weeks since 2nd dose, C1R-A2402 pre-pulsed with 1 μM peptide
[28] = vaccinated donor V17, 4.140 weeks since 2nd dose, C1R-A2402 pre-pulsed with 1 μM peptide
[29] = Suppl. Fig. 3b (for Fig. 4a, 4b), peptide(-) 14.8, 26 °C (Maximum) 32.7

| Sequence | IFNg-producing cells among CD8 T cells (%) [1, 2] | IFNg-producing cells among CD8 T cells (%) [1, 3] | IFNg-producing cells among CD8 T cells (%) [1, 4] | IFNg-producing cells among CD8 T cells (%) [1, 5] | IFNg-producing cells among CD8 T cells (%) [1, 6] | IFNg-producing cells among CD8 T cells (%) [1, 7] | IFNg-producing cells among CD8 T cells (%) [1, 8] | IFNg-producing cells among CD8 T cells (%) [1, 9] | IFNg-producing cells among CD8 T cells (%) [1, 10] | IFNg-producing cells among CD8 T cells (%) [1, 11] | IFNg-producing cells among CD8 T cells (%) [1, 12] | IFNg-producing cells among CD8 T cells (%) [1, 13] | IFNg-producing cells among CD8 T cells (%) [1, 14] | IFNg-producing cells among CD8 T cells (%) [1, 15] | IFNg-producing cells among CD8 T cells (%) [1, 16] | IFNg-producing cells among CD8 T cells (%) [1, 17] | IFNg-producing cells among CD8 T cells (%) [1, 18] | IFNg-producing cells among CD8 T cells (%) [1, 19] | IFNg-producing cells among CD8 T cells (%) [1, 20] | IFNg-producing cells among CD8 T cells (%) [1, 21] | also measured |
| --- | --- | --- | --- | --- | --- | --- | --- | --- | --- | --- | --- | --- | --- | --- | --- | --- | --- | --- | --- | --- | --- |
| RVYSTGSNVF [S-RF10] | 1.394% | 0.025% | 0.000% | 0.000% | 0.000% | 0.000% | 0.600% | 0.000% | 0.420% | 0.000% | 0% | 0% | 0.19% | 0.522% | 1.045% | 0% | 0% | 0.127% | 0% | 0.033% | Freq of responder (%) [1]: 5.9%; Resp: number of responders (individuals with epitope-specific CD8+ T cells) [1]: one; IFNg-producing cells among CD8 T cells (%) [1, 22]: 0.679%; IFNg-producing cells among CD8 T cells (%) [1, 23]: 0.143%; IFNg-producing cells among CD8 T cells (%) [1, 24]: 0.275%; IFNg-producing cells among CD8 T cells (%) [1, 25]: 0.249%; IFNg-producing cells among CD8 T cells (%) [1, 26]: 0.267%; IFNg-producing cells among CD8 T cells (%) [1, 27]: 0.199%; IFNg-producing cells among CD8 T cells (%) [1, 28]: 0%; MFI, HLA-A2402 (APC), representative staining (HLA-A*24:02; [29]): 48.0 |
| VFKNIDGYF [S-VF9] | 0.300% | 0.050% | 1.030% | 0.000% | 0.310% | 0.000% | 0.370% | 0.490% | 0.000% | 0.000% | 0% | 0% | 0% | 0.114% | 0.154% | 0% | 0.163% | 0% | 0% | 0% | IFNg-producing cells among CD8 T cells (%) [1, 22]: 0%; IFNg-producing cells among CD8 T cells (%) [1, 23]: 0.427%; IFNg-producing cells among CD8 T cells (%) [1, 24]: 0%; IFNg-producing cells among CD8 T cells (%) [1, 25]: 0.009%; IFNg-producing cells among CD8 T cells (%) [1, 26]: 0%; IFNg-producing cells among CD8 T cells (%) [1, 27]: 0.255%; IFNg-producing cells among CD8 T cells (%) [1, 28]: 0.147%; MFI, HLA-A2402 (APC), representative staining (HLA-A*24:02; [29]): 38.0 |
| VFVSNGTHWF [S-VFF10] | 0.490% | 0.090% | 0.710% | 0.000% | 0.560% | 0.000% | 0.420% | 0.110% | 0.000% | 0.000% | 0% | 0% | 0% | 0.485% | 0.489% | 0% | 0% | 0% | 3.184% | 0% | Freq of responder (%) [1]: 5.9%; Resp: number of responders (individuals with epitope-specific CD8+ T cells) [1]: one; IFNg-producing cells among CD8 T cells (%) [1, 22]: 0%; IFNg-producing cells among CD8 T cells (%) [1, 23]: 0.283%; IFNg-producing cells among CD8 T cells (%) [1, 24]: 0.024%; IFNg-producing cells among CD8 T cells (%) [1, 25]: 0%; IFNg-producing cells among CD8 T cells (%) [1, 26]: 0.253%; IFNg-producing cells among CD8 T cells (%) [1, 27]: 0%; IFNg-producing cells among CD8 T cells (%) [1, 28]: 0%; MFI, HLA-A2402 (APC), representative staining (HLA-A*24:02; [29]): 22.3; MFI, HLA-A2402 (APC), representative staining (HLA-A*24:02; Suppl. Fig. 3c (for Fig. 4c), peptide(-) 11.7, 26 °C (Maximum) 28.9): 37.9 |
| YYHKNNKSW [S-YW9] | 0.653% | 0.000% | 0.000% | 0.000% | 0.000% | 0.140% | 0.310% | 0.000% | 0.000% | 0.550% | 0.268% | 0% | 0.343% | 0% | 0.139% | 0.061% | 0.182% | 0.035% | 0.232% | 0% | IFNg-producing cells among CD8 T cells (%) [1, 22]: 0.769%; IFNg-producing cells among CD8 T cells (%) [1, 23]: 0%; IFNg-producing cells among CD8 T cells (%) [1, 24]: 0%; IFNg-producing cells among CD8 T cells (%) [1, 25]: 0%; IFNg-producing cells among CD8 T cells (%) [1, 26]: 0.709%; IFNg-producing cells among CD8 T cells (%) [1, 27]: 0.019%; IFNg-producing cells among CD8 T cells (%) [1, 28]: 0.154%; MFI, HLA-A2402 (APC), representative staining (HLA-A*24:02; [29]): 10.2; binding to HLA-A*24:02 (in words) (HLA-A*24:02; […], 16 peptides tested at 100 μM): did not bind |
| YYVGYLQPRTF [S-YF11] | 0.461% | 0.120% | 0.300% | 0.738% | 0.200% | 0.450% | 0.930% | 0.000% | 0.090% | 0.000% | 0.469% | 0.861% | 0.031% | 0% | 0% | 0.019% | 0% | 0% | 0% | 0% | IFNg-producing cells among CD8 T cells (%) [1, 22]: 0%; IFNg-producing cells among CD8 T cells (%) [1, 23]: 0%; IFNg-producing cells among CD8 T cells (%) [1, 24]: 0.015%; IFNg-producing cells among CD8 T cells (%) [1, 25]: 0%; IFNg-producing cells among CD8 T cells (%) [1, 26]: 0.234%; IFNg-producing cells among CD8 T cells (%) [1, 27]: 0.141%; IFNg-producing cells among CD8 T cells (%) [1, 28]: 0.134%; MFI, HLA-A2402 (APC), representative staining (HLA-A*24:02; [29]): 26.7 |
